Test [1] has as its target T1, CDK1/CycB (Homo sapiens, UniProt P06493).
T1 construct: GST; purchased ProQinase GmbH, Freiburg; host or cells: baculovirus-infected insect cells (Sf9)
The test is described as follows: CDK1/CycB kinase assay. Format: biochemical. Particulars: Table I. Here is the method: Recombinant CDK1- and CycB-GST fusion proteins, purified from baculovirus-infected insect cells (Sf9), were purchased from ProQinase GmbH, Freiburg. Histone IIIS, which was used as a kinase substrate, is commercially available from the Sigma Company.
CDK1/CycB (200 ng/measuring point) was incubated for 15 minutes at 22° C. in the presence of various concentrations of test substances (0 μm, as well as within the range of 0.01-100 μm) in assay buffer [50 mmol of tris/HCl, pH 8.0, 10 mmol of MgCl2, 0.1 mmol of Na ortho-vanadate, 1.0 mmol of dithiothreitol, 0.5 μm of adenosine triphosphate (ATP), 10 μg/measuring point of histone IIIS, 0.2 μCi/measuring point of 33P-gamma ATP, 0.05% NP40, 12.5% dimethyl sulfoxide]. The reaction was stopped by adding EDTA solution (250 mmol, pH 8.0, 14 μl/measuring point).
From each reaction batch, 10 μl was applied to P30 filter strips (Wallac Company), and non-incorporated 33P-ATP was removed by three washing cycles of the filter strips for 10 minutes each in 0.5% phosphoric acid. After the filter strips were dried for 1 hour at 70° C., the filter strips were covered with scintillator strips (MeltiLex™ A, Wallac Company) and baked for one hour at 90° C. The amount of incorporated 33P (substrate phosphorylation) was determined by scintillation measurement in a gamma-radiation measuring device (Wallac).

For test [2], the target named is T2, CDK2/CycE (Homo sapiens, UniProt P24941).
T2 construct: GST; purchased ProQinase GmbH, Freiburg; host or cells: baculovirus-infected insect cells (Sf9)
The experiment in a line: CDK2/CycE kinase assay. The class given is biochemical. Here is the method:
Recombinant CDK2- and CycE-GST-fusion proteins, purified from baculovirus-infected insect cells (Sf9), were purchased from ProQinase GmbH, Freiburg. Histone IIIS, which was used as a kinase substrate, was purchased from the Sigma Company.
The reaction was stopped by adding EDTA solution (250 mmol, pH 8.0, 14 μl/measuring point).
From each reaction batch, 10 μl was applied to P30 filter strips (Wallac Company), and non-incorporated ^33P-ATP was removed by subjecting the filter strips to three washing cycles for 10 minutes each in 0.5% phosphoric acid. After the filter strips were dried for one hour at 70° C., the filter strips were covered with scintillator strips (MeltiLex™ A, Wallac Company) and baked for one hour at 90° C. The amount of incorporated ^33P (substrate phosphorylation) was determined by scintillation measurement in a gamma-radiation measuring device (Wallac).

For test [3], the system named is MCF7. The experiment in a line: Proliferation assay MCF7. The class given is cell-based. The following applies: Homo sapiens, MCF7, 96 h, 4 days incubation, crystal violet. The text has this:
(§1) Cultivated human tumor cells (MCF7, […] human breast cancer cells, relative to ATCC HTB22; NCI-H460, human non-small-cell lung cancer cells, ATCC HTB-177, HCT 116, human colon cancer cells, ATCC CCL-247; DU 145, hormone-independent human prostate cancer cells, ATCC HTB-81; MaTu-MDR, hormone-independent, multiple pharmaceutical agent-resistant human breast cancer cells, EPO-GmbH, Berlin) were flattened out at a density of about 5000 cells/measuring point, depending on growth rates of the respective cells in a 96-well multititer plate in 200 μl of the corresponding growth medium. After 24 hours, the cells of one plate (zero-point plate) were colored with crystal violet (see below), while the medium of the other plates was replaced by fresh culture medium (200 μl), to which the test substances were added at various concentrations (0 μmol, as well as in the range of 0.01-30 μmol; the final concentration of the solvent dimethyl sulfoxide was 0.5%). The cells were incubated for 4 days in the presence of test substances. The cell proliferation was determined by coloring the cells with crystal violet: the cells were fixed by adding 20 μl/measuring point of an 11% glutaric aldehyde solution for 15 minutes at room temperature. After three washing cycles of the fixed cells with water, the plates were dried at room temperature. The cells were colored by adding 100 μl/measuring point of a 0.1% crystal violet solution (pH was set at 3 by adding acetic acid). After three washing cycles of the colored cells with water, the plates were dried at room temperature. The dye was dissolved by adding 100 μl/measuring point of a 10% acetic acid solution. The extinction was determined by photometry at a wavelength of 595 nm. The change of cell growth, in percent, was calculated by standardization of the measured values to the extinction values of the zero-point plate (=0%) and the extinction of the untreated (0 μm) cells (=100%).

Test [4] has as its target T3, VEGF Receptor tyrosine kinase-2 (Homo sapiens, UniProt P35968).
T3 construct: GST; made in house; host or cells: baculovirus-infected insect cells (Sf9)
The experiment in a line: VEGF Rezeptor-2 kinase assay. The following applies: Table I; read-out: VEGF-R2 IC50. The class given is biochemical. Here is the method:
VEGF Rezeptor-2 Kinase Assay
Recombinant VEGF Receptor tyrosine kinase-2 was purified as GST-fusion protein from baculovirus-infected insect cells (Sf9). Poly-(Glu4Tyr), which was used as a kinase substrate, was purchased from the Sigma Company.
VEGF Receptor tyrosine kinase (90 ng/measuring point) was incubated for 10 minutes at 22° C. in the presence of various concentrations of test substances (0 μmol, as well as within the range of 0.001-30 μM) in 30 μl of assay buffer [40 mmol of Tris/HCl […], 10 mmol of MgCl2, 1 mmol of MnCl2, 3 μmol of Na orthovanadate, 1.0 mmol of dithiothreitol, 8 μmol of adenosine trisphosphate (ATP), 27 μg/measuring point of poly-(Glu4Tyr), 0.2 μCi/measuring point of ^33P-gamma ATP, 1% dimethyl sulfoxide]. The reaction was stopped by adding EDTA solution (250 mmol, pH 7.0, 10 μl/measuring point).
From each reaction batch, 10 μl was applied to P30 filter strips (Wallac Company), and non-incorporated 33P-ATP was removed by subjecting the filter strips to three washing cycles for 10 minutes each in 0.5% phosphoric acid. After the filter strips were dried for 1 hour at 70° C., the filter strips were covered with scintillator strips (MeltiLex™ A, Wallac Company) and baked on for 1 hour at 90° C. The amount of incorporated 33P (substrate phosphorylation) was determined by scintillation measurement in a gamma-radiation measuring device (Wallac).

The subject of test [5] is DU145. The test is described as follows: Proliferation assay DU145. The class given is cell-based. Particulars: Homo sapiens, DU-145, 96 h; Table II; 4 days incubation, crystal violet.
Source text: as §1

For test [6], the system named is HCT116. The experiment in a line: Proliferation assay HCT116. Particulars: Homo sapiens, HCT-116, 96 h; Table II; 4 days incubation, crystal violet. The class given is cell-based.
Source text: as §1

Test [7] relates to MaTu-ADR. The test is described as follows: Proliferation assay MaTu-ADR. The class given is cell-based. Particulars: Homo sapiens, 96 h; Table II; 4 days incubation, crystal violet; read-out: Proliferation IC50 MaTu-ADR.
Source text: as §1

Test [8] relates to H460. The test is described as follows: Proliferation assay H460. Format: cell-based. The following applies: Homo sapiens, NCI-H460, 96 h; Table II; 4 days incubation, crystal violet.
Source text: as §1

Where [9] appears, read: Table I, read-out: CDK2/CycE IC50.
[10] abbreviates: Table II, read-out: Inhibition IC50 CDK2/CycE.
Where [11] appears, read: Table II, read-out: Proliferation IC50 MCF7.

Read-outs that look alike come from different tables or passages of the source.

T1 sequence (P06493 whole entry): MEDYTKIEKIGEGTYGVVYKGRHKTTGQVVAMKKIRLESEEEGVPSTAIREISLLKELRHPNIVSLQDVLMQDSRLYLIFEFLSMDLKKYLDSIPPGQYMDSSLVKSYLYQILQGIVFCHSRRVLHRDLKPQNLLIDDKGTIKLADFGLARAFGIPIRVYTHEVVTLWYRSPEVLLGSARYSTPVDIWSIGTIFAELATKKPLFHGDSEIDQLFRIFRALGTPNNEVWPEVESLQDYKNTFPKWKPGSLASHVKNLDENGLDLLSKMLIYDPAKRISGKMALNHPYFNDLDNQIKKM
T1 sequence (P14635 whole entry partner): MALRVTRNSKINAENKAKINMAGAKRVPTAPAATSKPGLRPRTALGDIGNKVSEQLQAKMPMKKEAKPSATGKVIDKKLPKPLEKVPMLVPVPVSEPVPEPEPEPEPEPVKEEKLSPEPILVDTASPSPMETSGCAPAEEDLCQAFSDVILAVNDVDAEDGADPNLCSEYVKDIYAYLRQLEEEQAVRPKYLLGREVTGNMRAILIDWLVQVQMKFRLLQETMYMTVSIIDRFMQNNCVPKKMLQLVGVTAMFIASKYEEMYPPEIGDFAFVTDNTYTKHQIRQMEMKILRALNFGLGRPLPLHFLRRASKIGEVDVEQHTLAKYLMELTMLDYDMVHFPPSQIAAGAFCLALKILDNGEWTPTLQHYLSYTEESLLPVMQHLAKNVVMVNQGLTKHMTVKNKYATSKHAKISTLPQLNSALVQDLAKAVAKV
T3 sequence (P35968 20-1356): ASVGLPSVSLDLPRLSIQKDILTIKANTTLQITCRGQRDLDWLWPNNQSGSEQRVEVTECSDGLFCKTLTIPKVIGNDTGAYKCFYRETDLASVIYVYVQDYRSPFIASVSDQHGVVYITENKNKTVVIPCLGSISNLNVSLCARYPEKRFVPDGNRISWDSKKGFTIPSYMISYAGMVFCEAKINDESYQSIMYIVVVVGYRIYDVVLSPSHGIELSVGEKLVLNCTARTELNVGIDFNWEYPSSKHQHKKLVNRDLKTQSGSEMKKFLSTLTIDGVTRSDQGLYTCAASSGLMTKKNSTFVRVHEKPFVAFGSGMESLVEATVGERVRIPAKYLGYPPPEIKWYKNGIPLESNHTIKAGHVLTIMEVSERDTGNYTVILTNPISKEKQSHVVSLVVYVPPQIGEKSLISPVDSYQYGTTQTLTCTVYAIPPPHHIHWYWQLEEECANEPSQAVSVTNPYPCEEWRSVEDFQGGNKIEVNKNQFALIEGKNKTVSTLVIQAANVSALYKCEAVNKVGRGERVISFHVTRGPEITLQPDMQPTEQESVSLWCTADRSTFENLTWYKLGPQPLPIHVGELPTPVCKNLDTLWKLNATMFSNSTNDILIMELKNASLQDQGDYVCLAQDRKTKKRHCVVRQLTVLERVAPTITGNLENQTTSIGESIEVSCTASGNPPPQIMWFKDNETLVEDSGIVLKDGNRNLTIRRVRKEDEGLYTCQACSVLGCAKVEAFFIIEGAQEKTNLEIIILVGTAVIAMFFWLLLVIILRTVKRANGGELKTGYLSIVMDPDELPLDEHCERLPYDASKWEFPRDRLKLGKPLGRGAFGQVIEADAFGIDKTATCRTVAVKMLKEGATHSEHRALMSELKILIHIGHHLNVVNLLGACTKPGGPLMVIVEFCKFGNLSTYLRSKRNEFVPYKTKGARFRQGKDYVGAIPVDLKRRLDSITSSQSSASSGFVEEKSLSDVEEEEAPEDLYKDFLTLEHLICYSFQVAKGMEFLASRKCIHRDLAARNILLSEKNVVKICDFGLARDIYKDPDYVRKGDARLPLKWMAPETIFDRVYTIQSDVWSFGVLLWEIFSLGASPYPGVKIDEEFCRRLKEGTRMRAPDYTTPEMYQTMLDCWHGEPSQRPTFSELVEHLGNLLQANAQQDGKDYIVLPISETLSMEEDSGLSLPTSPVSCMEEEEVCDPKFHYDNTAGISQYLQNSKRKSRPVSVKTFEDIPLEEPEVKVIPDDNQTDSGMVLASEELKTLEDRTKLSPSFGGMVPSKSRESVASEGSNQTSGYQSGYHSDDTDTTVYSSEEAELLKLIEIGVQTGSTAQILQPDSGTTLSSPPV

For the compound `O=S1(=O)NCC(O)CNc2nc(ncc2Br)Nc2cccc1c2` (racemic) [Example 1.2, rac-1^5-Bromo-4-thia-2,5,9-triaza-1(2,4)-pyrimidina-3(1,3)-benzenacyclononaphan-7-ol-4,4-dioxide], the IC50 came out at 40 nM in test [1]; 510 nM in test [2] (setting [9]); 2600 nM in test [3] (Table I, read-out: MCF7 IC50).
For the compound `O=S1(=O)NCCC(CO)Nc2nc(ncc2Br)Nc2cccc1c2` (single isomer, unassigned) [1.3 (+) Enantiomer], the IC50 amounted to 23 nM in test [2] (setting [9]); 900 nM in test [3] (Table I, read-out: MCF7 IC50); 69 nM in test [4].
In the case of `O=S1(=O)NCCC(CO)Nc2nc(ncc2Br)Nc2cccc1c2` (single isomer, unassigned) [Example 1.3 (+) Enantiomer], the IC50 in test [5] was 4000 nM; in test [6] it was 1400 nM; in test [2] (setting [10]) it was 23 nM; in test [7] it was 4000 nM; in test [3] (setting [11]) it was 900 nM; in test [8] it was 2100 nM.
Consider `O=S1(=O)NCCCCCNc2nc(ncc2Br)Nc2cccc1c2` [Example 1.0, 1^5-Bromo-4-thia-2,5,11-triaza-1(2,4)-pyrimidina-3(1,3)-benzenacycloundecaphane 4,4-dioxides], for which the IC50 was determined as 2000 nM in test [5]; 200 nM in test [1]; 1300 nM in test [6]; 420 nM in test [2] (setting [9]); 420 nM in test [2] (setting [10]); 700 nM in test [7]. Moreover, the IC50 was determined as 1100 nM in test [3] (Table I, read-out: MCF7 IC50); 1100 nM in test [3] (setting [11]); 1800 nM in test [8].
On to `O=S1(=O)NCCCOc2nc(ncc2Br)Nc2cccc1c2` [Example 3.0, 1^5-Bromo-9-oxa-4-thia-2,5-diaza-1(2,4)-pyrimidina-3(1,3)-benzenacyclononaphane-4,4-dioxide], for which the IC50 is 50 nM in test [1]; 160 nM in test [2] (setting [9]); 1600 nM in test [3] (Table I, read-out: MCF7 IC50); 89 nM in test [4].
`N#Cc1cnc2nc1NCCCNS(=O)(=O)c1cccc(c1)N2` [Example 5.0, 1^5-Cyano-4-thia-2,5,9-triaza-1(2,4)-pyrimidina-3(1,3)-benzenacyclononaphane 4,4-dioxide] returned an IC50 in test [1] of 300 nM.
For the compound `Brc1cnc2nc1NCCCCOc1cccc(c1)N2` [Example 7.1, 1^5-Bromo-4-oxa-2,9-diaza-1(2,4)-pyrimidina-3(1,3)-benzenacyclononaphane], the IC50 stood at 2400 nM in test [2] (setting [10]) and 4000 nM in test [3] (setting [11]).
For the compound `O=C1NCCCNc2nc(ncc2Br)Nc2cccc(c2)N1` [Example 10.0, 1^5-Bromo-2,4,6,10-tetraaza-1(2,4)-pyrimidina-3(1,3)-benzenacyclodecaphan-5-one], the IC50 in test [1] was 360 nM; in test [2] (setting [9]), 120 nM; in test [3] (Table I, read-out: MCF7 IC50) it was 6000 nM.
Regarding `CCc1cnc2nc1NCCCCCNS(=O)(=O)c1cccc(c1)N2` [Example 14.2], the IC50 in test [2] (setting [10]) was 5000 nM.
For the compound `O=S1(=O)NCCCC[C@@H](CO)Nc2nc(ncc2Br)Nc2cccc1c2` [Example 14.4], the IC50 was 1700 nM in test [1]; 250 nM in test [2] (setting [9]); 2000 nM in test [2] (setting [10]); 4000 nM in test [3] (Table I, read-out: MCF7 IC50).
Take `O=S1(=O)NCCCCNc2nc(ncc2Br)Nc2cccc1c2` [Example 14.6]: the IC50 in test [5] came to 1700 nM; in test [1] it was 90 nM; in test [6], 500 nM; in test [2] (setting [9]), 320 nM; in test [2] (setting [10]) it was 320 nM; in test [7], 300 nM. The IC50 in test [3] (Table I, read-out: MCF7 IC50) came to 700 nM; in test [3] (setting [11]) it was 700 nM; in test [8] it was 700 nM.
The compound `O=S1(=O)NCCC(O)CNc2nc(ncc2Br)Nc2cccc1c2` (stereo not drawn) [Example 14.8] yielded an IC50 in test [1] of 200 nM.
In the case of `O=S1(=O)NCCCCNc2nc(ncc2Br)Nc2csc1c2` [Example 14.10], the IC50 in test [5] is 400 nM; in test [6] it was 100 nM; in test [2] (setting [9]) it was 65 nM; in test [3] (Table I, read-out: MCF7 IC50), 1900 nM; in test [3] (setting [11]), 300 nM; in test [8], 100 nM. In test [4], the IC50 was found to be 190 nM.
For the compound `NS(=O)(=O)c1ccc2cc1OCCCCCNc1nc(ncc1Br)N2` [Example 14.11], the IC50 in test [5] worked out at 900 nM; in test [1] it was 200 nM; in test [6] it was 700 nM; in test [2] (setting [9]), 2400 nM; in test [2] (setting [10]), 2400 nM; in test [7] it was 1300 nM. In addition, the IC50 came out at 750 nM in test [3] (Table I, read-out: MCF7 IC50); 750 nM in test [3] (setting [11]); 900 nM in test [8].
Regarding `O=S1(=O)N[C@H]2CC[C@@H](CC2)Nc2nc(ncc2Br)Nc2cccc1c2` [Example 14.15], the IC50 in test [5] was 1200 nM; in test [1], 1500 nM; in test [6], 1000 nM; in test [2] (setting [9]), 130 nM; in test [2] (setting [10]) it was 1500 nM; in test [7], 1300 nM. In addition, the IC50 came to 1300 nM in test [3] (Table I, read-out: MCF7 IC50); 1300 nM in test [3] (setting [11]); 1200 nM in test [8].
For the compound `Cc1ccc2cc1S(=O)(=O)NCCCNc1nc(ncc1Br)N2` [Example 14.16], the IC50 in test [1] was 300 nM; in test [2] (setting [9]), 4400 nM; in test [3] (Table I, read-out: MCF7 IC50), greater than 10000 nM.
For `OCC1CCCOc2cccc(c2)Nc2ncc(Br)c(n2)N1` (stereo not drawn) [Example 14.18], the IC50 in test [1] turned out to be 80 nM; in test [2] (setting [9]), 30 nM; in test [3] (Table I, read-out: MCF7 IC50) it was 2100 nM; in test [4], 370 nM.

These data come from US7312225B2, “Macrocyclic pyrimidines, their production and use as pharmaceutical agents” (Bayer Schering Pharma AG, priority 2002, dated 2007).
